Measurements taken from PubChem BioAssay AID248 (DTP/NCI, 2004).
Values joined by “and” are separate entries in the source; they are usually repeats but may differ in a detail not shown here. Equal values may be shown once. Inconclusive results and toxic doses are left out. Rule as the data show it: active = T/C of 150% or more; inactive = T/C below 125%.

System: L1210 leukemia ip in BDF1 mice, survival T/C
Assay: NCI In Vivo Anticancer Drug Screen. Data for tumor model L1210 Leukemia (intraperitoneal) in B6D2F1 (BDF1) mice
Details: endpoint: mean survival time, higher = longer survival
Method in brief: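 Tumor cells were implanted, animals were treated, and survival was followed. The result divides the treated measurement by the vehicle-control measurement.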

[1] = dose: 100.0 mg/kg/injection, schedule: Q01DX009 (ip), vehicle: saline
[2] = dose: 200.0 mg/kg/injection, schedule: Q01DX009 (ip), vehicle: saline
[3] = dose: 400.0 mg/kg/injection, schedule: Q01DX009 (ip), vehicle: saline
[4] = dose: 100.0 mg/kg/injection, schedule: Q04DX003 (ip), vehicle: Klucel (hydroxypropylcellulose) (HPC)
[5] = dose: 200.0 mg/kg/injection, schedule: Q04DX003 (ip), vehicle: Klucel (hydroxypropylcellulose) (HPC)
[6] = dose: 100.0 mg/kg/injection, schedule: Q04DX002 (ip), vehicle: saline with Tween-80
[7] = dose: 100.0 mg/kg/injection, schedule: Q01DX001 (ip), vehicle: other
[8] = dose: 200.0 mg/kg/injection, schedule: Q01DX001 (ip), vehicle: other
[9] = dose: 400.0 mg/kg/injection, schedule: Q01DX001 (ip), vehicle: other
[10] = dose: 100.0 mg/kg/injection, schedule: Q01DX009 (ip), vehicle: saline with Tween-80
[11] = dose: 100.0 mg/kg/injection, schedule: Q04DX003 (ip), vehicle: saline with Tween-80
[12] = dose: 200.0 mg/kg/injection, schedule: Q04DX003 (ip), vehicle: saline with Tween-80
[13] = dose: 400.0 mg/kg/injection, schedule: Q04DX003 (ip), vehicle: saline with Tween-80

Measured: T/C

C1CN(P(N2CCOCC2)N2CCOCC2)CCO1
inactive: [1] 104 % of control | [2] 98 % of control | [3] 98 % of control

C/C(CCC(=O)O)=N\NC(=O)COc1ccc(Cl)cc1Cl
inactive: [4] 94 % of control | [5] 98 % of control

COC(=O)NC1CC/C=C\CCC1I (centres undefined)
inactive: dose: 200.0 mg/kg/injection, schedule: Q04DX002 (ip), vehicle: DMSO 102 % of control

O=C([O][Sb]([O]C(=O)C(F)(F)F)([c]1ccccc1)([c]1ccccc1)[c]1ccccc1)C(F)(F)F
inactive: dose: 100.0 mg/kg/injection, schedule: Q01DX001 (ip), vehicle: saline with Tween-80 99 % of control | dose: 200.0 mg/kg/injection, schedule: Q01DX001 (ip), vehicle: saline with Tween-80 92 % of control

Cc1cc(O)ccc1CCC#N
inactive: [1] 96 % of control and 91 % of control | [6] 95 % of control and 101 % of control | [2] 104 % of control and 115 % of control | dose: 200.0 mg/kg/injection, schedule: Q04DX002 (ip), vehicle: saline with Tween-80 95 % of control and 96 % of control | [3] 96 % of control and 89 % of control | dose: 400.0 mg/kg/injection, schedule: Q04DX002 (ip), vehicle: saline with Tween-80 95 % of control and 101 % of control

Oc1ccccc1-c1nc2ccccc2[nH]1
inactive: dose: 100.0 mg/kg/injection, schedule: Q04DX002 (ip), vehicle: Klucel (hydroxypropylcellulose) (HPC) 109 % of control | dose: 200.0 mg/kg/injection, schedule: Q04DX002 (ip), vehicle: Klucel (hydroxypropylcellulose) (HPC) 98 % of control | dose: 400.0 mg/kg/injection, schedule: Q04DX002 (ip), vehicle: Klucel (hydroxypropylcellulose) (HPC) 95 % of control

COc1nc(N)c([N+](=O)[O-])c(OC)n1
inactive: dose: 16.0 mg/kg/injection, schedule: Q01DX Z (ip), vehicle: methylcellulose (MC) 97 % of control | dose: 31.0 mg/kg/injection, schedule: Q01DX Z (ip), vehicle: methylcellulose (MC) 90 % of control | dose: 62.0 mg/kg/injection, schedule: Q01DX Z (ip), vehicle: methylcellulose (MC) 103 % of control

CC(=N/N(Cc1ccccc1)c1ccccc1)/C(C)=N/N(Cc1ccccc1)c1ccccc1
inactive: [7] 89 % of control | [8] 89 % of control | [9] 89 % of control

CCOCc1c(COc2ccc(Br)cc2)n(C)c2ccccc12
inactive: dose: 25.0 mg/kg/injection, schedule: Q01DX009 (ip), vehicle: saline with Tween-80 100 % of control | dose: 50.0 mg/kg/injection, schedule: Q01DX009 (ip), vehicle: saline with Tween-80 89 % of control and 90 % of control | [10] 90 % of control | dose: 200.0 mg/kg/injection, schedule: Q01DX009 (ip), vehicle: saline with Tween-80 99 % of control

CC12CC(C(=O)c3ccccc3)C(C)(C1=O)C(c1ccccc1)=C2c1ccccc1 (centres undefined)
inactive: [11] 96 % of control | [12] 89 % of control | [13] 89 % of control

CC(=O)OCC1OC(OC(C)=O)C(NC(=O)NCCCl)C(OC(C)=O)C1OC(C)=O (centres undefined)
inactive: [7] 97 % of control | [8] 101 % of control | [9] 97 % of control

Cc1ccc(S)cc1.[Pb]
inactive: dose: 50.0 mg/kg/injection, schedule: Q01DX001 (ip), vehicle: carboxymethylcellulose (CMC) 98 % of control | dose: 100.0 mg/kg/injection, schedule: Q01DX001 (ip), vehicle: carboxymethylcellulose (CMC) 93 % of control | dose: 200.0 mg/kg/injection, schedule: Q01DX001 (ip), vehicle: carboxymethylcellulose (CMC) 103 % of control | dose: 400.0 mg/kg/injection, schedule: Q01DX001 (ip), vehicle: carboxymethylcellulose (CMC) 93 % of control

CC(C)=CCC/C(C)=C/Cn1cnc2c(ncn2C2OC(CO)C(O)C2O)c1=O (centres undefined)
inactive: dose: 12.5 mg/kg/injection, schedule: Q01DX009 (ip), vehicle: saline 100 % of control | dose: 25.0 mg/kg/injection, schedule: Q01DX005 (ip), vehicle: saline 97 % of control | dose: 25.0 mg/kg/injection, schedule: Q01DX009 (ip), vehicle: saline 100 % of control | dose: 50.0 mg/kg/injection, schedule: Q01DX005 (ip), vehicle: saline 108 % of control | dose: 50.0 mg/kg/injection, schedule: Q01DX009 (ip), vehicle: saline 92 % of control | dose: 100.0 mg/kg/injection, schedule: Q01DX005 (ip), vehicle: saline 96 % of control

O=C1c2cccc3c2C2(O)c4c1cccc4C(=O)c1cccc(c12)C3=O
inactive: [10] 101 % of control | [11] 96 % of control | dose: 132.0 mg/kg/injection, schedule: Q01DX009 (ip), vehicle: saline 101 % of control | [2] 101 % of control | [12] 100 % of control | dose: 300.0 mg/kg/injection, schedule: Q01DX009 (ip), vehicle: saline 95 % of control | [13] 102 % of control

O=C(NOCc1cscn1)Nc1ccccc1
inactive: dose: 100.0 mg/kg/injection, schedule: Q01DX001 (ip), vehicle: saline 101 % of control | dose: 200.0 mg/kg/injection, schedule: Q01DX001 (ip), vehicle: saline 104 % of control | dose: 400.0 mg/kg/injection, schedule: Q01DX001 (ip), vehicle: saline 104 % of control

c1ccc2c(OCC3=NCCN3)cccc2c1
inactive: dose: 20.0 mg/kg/injection, schedule: Q01DX001 (ip), vehicle: Klucel (hydroxypropylcellulose) (HPC) 104 % of control | dose: 25.0 mg/kg/injection, schedule: Q01DX009 (ip), vehicle: Klucel (hydroxypropylcellulose) (HPC) 105 % of control | dose: 40.0 mg/kg/injection, schedule: Q01DX001 (ip), vehicle: Klucel (hydroxypropylcellulose) (HPC) 104 % of control | dose: 50.0 mg/kg/injection, schedule: Q01DX009 (ip), vehicle: Klucel (hydroxypropylcellulose) (HPC) 106 % of control | dose: 80.0 mg/kg/injection, schedule: Q01DX001 (ip), vehicle: Klucel (hydroxypropylcellulose) (HPC) 102 % of control | dose: 100.0 mg/kg/injection, schedule: Q01DX001 (ip), vehicle: Klucel (hydroxypropylcellulose) (HPC) 109 % of control

C=C1C(=O)OC2C1C(O)CC(C)(O)C1CC=C(C)C21 (centres undefined)
inactive: dose: 100.0 mg/kg/injection, schedule: Q04DX002 (ip), vehicle: saline 102 % of control | dose: 200.0 mg/kg/injection, schedule: Q04DX002 (ip), vehicle: saline 102 % of control | dose: 400.0 mg/kg/injection, schedule: Q04DX002 (ip), vehicle: saline 94 % of control

Cc1cc(=O)n(-c2ccccc2)cn1
inactive: [4] 98 % of control | [5] 89 % of control | dose: 400.0 mg/kg/injection, schedule: Q04DX003 (ip), vehicle: Klucel (hydroxypropylcellulose) (HPC) 96 % of control

O=C(OCC1CC=CC1)C1CC=CC1
inactive: dose: 100.0 mg/kg/injection, schedule: Q04DX003 (ip), vehicle: saline sonified 102 % of control | dose: 200.0 mg/kg/injection, schedule: Q04DX003 (ip), vehicle: saline sonified 96 % of control

C/C=C1/C[C@@H](C)[C@@](C)(O)C(=O)OCC2=CC[N+]3([O-])CC[C@@H](OC1=O)[C@@H]23 (some centres undefined)
inactive: dose: 20.0 mg/kg/injection, schedule: Q01DX015 (ip), vehicle: saline 98 % of control | dose: 30.0 mg/kg/injection, schedule: Q01DX015 (ip), vehicle: saline 96 % of control | dose: 40.0 mg/kg/injection, schedule: Q01DX015 (ip), vehicle: saline 102 % of control

CCCCCCCCC(=O)N(C)OC
inactive: [11] 93 % of control | [12] 93 % of control

O=C1CCC2C1CC1CC3C(=O)CCC3C12 (centres undefined)
inactive: dose: 50.0 mg/kg/injection, schedule: Q04DX002 (ip), vehicle: saline with Tween-80 113 % of control | [6] 98 % of control
